Tested on: GB126, GB239 and GB86 patient-derived cell lines
Assay: In vitro single-cell RNA sequencing, analyses across the cell lines (pseudobulk differential gene expression, GSEA, non-cycling cells)
Assay type: cell-based, human
Experimental: Patient-derived glioma stem cell lines (GSCs; GB126, GB86, and GB239) were established from resected GBM tumor tissue. Cell lines were genetically profiled for mutations and copy number aberrations using the IvySeq custom gene panel. […] GB239 was derived from a tumor sample included in this Phase 0 trial (tumor sample: 100-0039). All human GSCs were cultured as described previously.[12]
Following the fifth day of drug exposure, cells were harvested, cryopreserved to be processed at a later point, or immediately processed for single-cell RNA sequencing (10x Genomics, 3’ version 3). The single-cell RNA sequencing data were then processed via cellranger count and Seurat. Briefly, cells were filtered out based on the following criteria: minimum number of genes detected >500 and <10 000 with a maximum percentage of mitochondrial genes set to 10%. Statistical assessment was made between the malignant proportions of each cell state using a 2-sided paired t-test.
Descriptive statistics of the clinical data are included in Table 1. Comparisons between groups were conducted using a 2-sided or paired 2-sided t-test, where indicated. P < .05 was considered significant. Multiple hypothesis test corrections (ie, false discovery rate correction) were applied for snRNAseq pseudobulk differential expression analysis.

CN(C)C(=O)c1cc2cnc(Nc3ccc(N4CCNCC4)cn3)nc2n1C1CCCC1 [Ribociclib, ribociclib]
CDK4 gene expression following ribociclib treatment (5 days vs DMSO, single-cell RNAseq): reduced but remained high | NPC-like proportion, cells not actively cycling (ribociclib vs DMSO 5 days, paired t-test P = 1.4E-06): decrease | AC-like proportion, cells not actively cycling (ribociclib vs DMSO 5 days, paired t-test P = 2.6E-03): increase

Source: paper PMC13070491, “Single-nucleus transcriptomics, pharmacokinetics, and pharmacodynamics of CDK4/6 and mTOR inhibition in a Phase 0/1 trial of recurrent high-grade glioma” (Neuro-Oncology, 2025)
